Laboratory results from patent publication US10183000B1, “2, 4-dinitroanilino-benzoic acid: novel insulinotropic agent for the treatment of diabetes” (priority 2017, dated 2019).
“Also recorded” adds a separate entry of the source.

Columns and labels:
[1] = system: STZ-induced diabetic rats; experiment: Fasting blood glucose in STZ-induced diabetic rats, eight weeks of treatment; format: in vivo, Wistar rats
Protocol: Animals: Eight weeks old Wistar rats (n=54; 24 males: 30 females) weighing 160-180 g were used in the study. During the eight weeks of the experiment, animals were kept in the animal house with a controlled temperature (25±2°C.), and 12 hours light/dark cycle. Water and standardized food access were provided at libitum.
Diabetes Induction: Prior to induction of diabetes, animals were given a high-fat diet (40% fat content) for two weeks. Diabetes was induced by administrating intraperitoneally a single dose of freshly prepared solution of streptozotocin (45 mg/kg) (Wako, Richmond, USA) in a chilled 0.1 M citrate buffer, pH 4.5. The normal control rats were injected with citrate buffer alone. Fasting blood glucose levels (FBG) were measured after 48 hours, and one week of diabetes induction with a blood glucose analyzer (Accu-Chek®, Roche, Mannheim, Germany). […]
Blood glucose levels and body weight of each group were monitored on weekly basis under fasting states. […] Serum- and isolated pancreatic insulin contents were measured by rat insulin ELISA kit (Amersham Biosciences, N.J., USA).
Statistical Analysis: All results are expressed as means ±SEM. The significance of differences between groups was determined by using one-way ANOVA, and multiple comparisons were performed by Tukey Alpha, post hoc analysis. […]

[2] = system: STZ-induced diabetic rats; experiment: Dose optimization of anti-diabetic effect in STZ-induced diabetic rats; format: in vivo, Wistar rats; details: 25, 50, and 100 mg/kg in STZ-induced diabetic rats
Protocol: (§1) Diabetes Induction: Prior to induction of diabetes, animals were given a high-fat diet (40% fat content) for two weeks. Diabetes was induced by administrating intraperitoneally a single dose of freshly prepared solution of streptozotocin (45 mg/kg) (Wako, Richmond, USA) in a chilled 0.1 M citrate buffer, pH 4.5. The normal control rats were injected with citrate buffer alone. Fasting blood glucose levels (FBG) were measured after 48 hours, and one week of diabetes induction with a blood glucose analyzer (Accu-Chek®, Roche, Mannheim, Germany). Rats with FBG levels of ≥200 mg/dL were considered diabetic, and randomly divided into diabetic and a compound 1-treated (100 mg/kg) groups. […] This indicated the safety of doses up to 100 mg/kg of body weight.

[3] = system: STZ-induced diabetic rats; experiment: Mortality on daily oral administration for eight weeks; format: in vivo, Wistar rats; details: doses up to 100 mg/kg of body weight
Protocol: as §1

[4] = system: STZ-induced diabetic rats; experiment: Serum insulin levels by rat insulin ELISA; format: in vivo, Wistar rats; details: 100 mg/kg, 8 weeks, vs STZ-induced diabetic group
Protocol: (§2) Blood glucose levels and body weight of each group were monitored on weekly basis under fasting states. Blood samples were drawn from tail vein to measure the glucose levels by blood glucose analyzer. After 8 weeks of the experiments, rats under 8 hours of fasting states were anaesthetized by phenobarbital sodium (60 mg/kg), and blood samples were collected via cardiopuncture. Serum was stored at −80° C. until measurement of the insulin levels. A part of cryopreserved isolated pancreas was used for the measurement of pancreatic insulin contents. Briefly, pancreas were homogenized in an acid-ethanol solution (75% ethanol, 1.5% HCl, and 23.5% deionized water), and the mixture was kept for 4 hours at 4° C. to extract the insulin. Serum- and isolated pancreatic insulin contents were measured by rat insulin ELISA kit (Amersham Biosciences, N.J., USA).

[5] = system: STZ-induced diabetic rats; experiment: Pancreatic insulin contents by acid-ethanol extraction and rat insulin ELISA; format: in vivo, Wistar rats; details: 100 mg/kg, 8 weeks, vs STZ-induced diabetic group
Protocol: as §2

[6] = system: pancreatic islet in diabetic Wistar rats; experiment: Islets histopathology (H&E) and insulin immunohistochemistry; format: in vivo; details: 100 mg/kg
Protocol: Procedure: Pancreata isolated from rats were fixed with 3.7% neutral buffered formalin and embedded in paraffin. The 5 μm thick sections (n=6/group) were stained with eosin and hematoxilin, and evaluated for islets histopathology, after performing deparaffinization and dehydration steps. For immunohistochemistry analysis, briefly the antigen was first retrieved by heating for 40 min at 90° C. in 5.0 mM citrate buffer, pH 4.5. Prior to primary antibody treatment, each section was then cooled at room temperature, and incubated with 1× rotti immunoblocking solution (Carl Roth, Karlsruhe, Germany). The sections were immunostained with mouse K36AC10 monoclonal anti-insulin antibody (1:2,000) (Sigma Aldrich, St. Louis, Mo., USA) for 1 hour in a dark humidified chamber at 37° C. The sections were then immunostained with Alexa Fluor 594 donkey anti-mouse IgM secondary antibody (1:200)(Jackson ImmunoResearch, Pa., USA) for 1 hour in a dark chamber at 37° C. for detention. Finally, beta cells nuclei were stained with DAPI (1:5,000) (Sigma Aldrich, St, Louis, Mo., USA). The stained sections were observed under Nikon 90i microscope, equipped with DXM-1200 digital camera (Nikon, Tokyo, Japan).

[7] = system: pancreatic islet in diabetic Wistar rats; experiment: Quantification of pancreatic islet area and beta-cell number; format: in vivo; details: 100 mg/kg, per pancreas section, n=5
Text: Procedure: The pancreatic islet area (μ2) and the beta-cell number were quantified from overlapped images of pancreas that was immunostained with insulin and DAPI in all islet sections using NIS-Elements image analysis software AR 3.0. The pancreatic islet area (μ2) and the beta-cell number per section were enumerated by using five sections per pancreas, and five rats from each group.

O=C(O)c1ccccc1Nc1ccc([N+](=O)[O-])cc1[N+](=O)[O-] [Compound 1, 2,4-Dinitroanilino-benzoic acid]
FBG levels (in words) ([1]; 100 mg/kg of body weight, long term treatment, vs untreated diabetic group): significant reduction in FBG levels
FBG ([1]; STZ-induced diabetic rats, 100 mg/kg, eight weeks of treatment, mean ± SE, 06 rats, *P<0.05 vs diabetic group): 126 ± 8* mg/dL
anti-diabetic effect, dose optimization [2]: dose dependent anti-diabetic effect was observed with a significant effect at 100 mg/kg
mortality [3]: without significant mortality
serum insulin levels [4]: marked increase in serum insulin levels
pancreatic insulin contents [5]: increase in pancreatic insulin contents; also recorded: significantly restored
degenerative changes / islet atrophy (histopathology) ([6]; H&E staining, STZ-induced diabetic rats): markedly attenuated the STZ-induced islet atrophy; also recorded: significantly attenuated
immunofluorescent staining for insulin / residual beta-cell function ([6]; anti-insulin immunostaining, vs STZ-induced diabetic group): increased immunoreactivity for insulin; also recorded: restored the residual beta-cell function
beta-cell number [7]: significantly restored
islet area [7]: significantly restored
